In patent US20230279001A1, “IMIDAZO[1,2-A]PYRIDINE COMPOUNDS FOR THE TREATMENT OF AUTOIMMUNE DISEASE” (Hoffmann-La Roche Inc., priority 2020, published 2023):
pIC50: −log10 of the molar value.

Columns and labels:
human TLR7 = human TLR7 (Homo sapiens (Human), UniProt Q9NYK1); assay: HEK293-Blue-hTLR-7 cells assay; type: cell-based; settings: HEK293-Blue-hTLR7 cells, R848 stimulation, 20 hrs, SEAP reporter; read-out: HEK/hTLR7 IC50
Description: (§1) A stable HEK293-Blue-hTLR-7 cell line was purchased from InvivoGen (Cat. #: hkb-htlr7, San Diego, Calif., USA). These cells were originally designed for studying the stimulation of human TLR7 by monitoring the activation of NF-κB. A SEAP (secreted embryonic alkaline phosphatase) reporter gene was placed under the control of the IFN-β minimal promoter fused to five NF-κB and AP-1-binding sites. The SEAP was induced by activating NF-κB and AP-1 via stimulating HEK-Blue hTLR7 cells with TLR7 ligands. Therefore the reporter expression was declined by TLR7 antagonist under the stimulation of a ligand, such as R848 (Resiquimod), for incubation of 20 hrs. The cell culture supernatant SEAP reporter activity was determined using QUANTI-Blue™ kit (Cat. #: rep-qb1, Invivogen, San Diego, Ca, USA) at a wavelength of 640 nm, a detection medium that turns purple or blue in the presence of alkaline phosphatase.
(§2) HEK293-Blue-hTLR7 cells were incubated at a density of 250,000˜450,000 cells/mL in a volume of 170 μL in a 96-well plate in Dulbecco's Modified Eagle's medium (DMEM) containing 4.5 g/L glucose, 50 U/mL penicillin, […], […], 2 mM L-glutamine, 10% (v/v) heat-inactivated fetal bovine serum with addition of 20 μL test compound in a serial dilution in the presence of final DMSO at 1% and 10 μL of 20 uM R848 in above DMEM, perform incubation under 37° C. in a CO2 incubator for 20 hrs. Then 20 μL of the supernatant from each well was incubated with 180 μL Quanti-blue substrate solution at 37° C. for 2 hrs and the absorbance was read at 620-655 nm using a spectrophotometer. The signaling pathway that TLR7 activation leads to downstream NF-κB activation has been widely accepted, and therefore similar reporter assay was modified for evaluating TLR7 antagonist.

human TLR8 = human TLR8 (Homo sapiens (Human), UniProt Q9NR97); assay: HEK293-Blue-hTLR-8 cells assay; type: cell-based; settings: HEK293-Blue-hTLR8 cells, R848 stimulation, 20 hrs, SEAP reporter; read-out: HEK/hTLR8 IC50
Description: as §1, with “HEK293-Blue-hTLR-8” for “HEK293-Blue-hTLR-7”, “hkb-htlr8,” for “hkb-htlr7,”, “TLR8” for “TLR7”, “hTLR8” for “hTLR7”, “R848,” for “R848 (Resiquimod),”, “rep-gb1,” for “rep-qb1,”
as §2, with “HEK293-Blue-hTLR8 cells were” for “HEK293-Blue-hTLR7 cells were”, “μL of 60 uM R848” for “μL of 20 uM R848”, “read at 620655 nm using” for “read at 620-655 nm using”, “pathway that TLR8 activation leads” for “pathway that TLR7 activation leads”, “for evaluating TLR8 antagonist.” for “for evaluating TLR7 antagonist.”

TLR9 = TLR9 (Homo sapiens (Human), UniProt Q9NR96); assay: HEK293-Blue-hTLR-9 cells assay; type: cell-based; settings: HEK293-Blue-hTLR9 cells, ODN2006 stimulation, 20 hrs, SEAP reporter; read-out: HEK/hTLR9 IC50
Description: as §1, with “HEK293-Blue-hTLR-9” for “HEK293-Blue-hTLR-7”, “hkb-htlr9,” for “hkb-htlr7,”, “TLR9” for “TLR7”, “hTLR9” for “hTLR7”, “ODN2006 (Cat. #: tlr1-2006-1, Invivogen, San Diego, Calif., USA),” for “R848 (Resiquimod),”, “Calif.,” for “Ca,”
HEK293-Blue-hTLR9 cells were incubated at a density of 250,000˜450,000 cells/mL in a volume of 170 μL in a 96-well plate in Dulbecco's Modified Eagle's medium (DMEM) containing 4.5 g/L glucose, 50 U/mL penicillin, […], 2 mM L-glutamine, 10% (v/v) heat-inactivated fetal bovine serum with addition of 20 μL test compound in a serial dilution in the presence of final DMSO at 1% and 10 μL, of 20 uM ODN2006 in above DMEM, perform incubation under 37° C. in a CO2 incubator for 20 hrs. Then 20 μL of the supernatant from each well was incubated with 180 μL, Quanti-blue substrate solution at 37° C. for 2 h and the absorbance was read at 620655 nm using a spectrophotometer. The signaling pathway that TLR9 activation leads to downstream NF-κB activation has been widely accepted, and therefore similar reporter assay was modified for evaluating TLR9 antagonist.

[1] = Human microsome stability assay; type: in vitro ADME; settings: human liver microsomes, 1 μM test compound, 37° C., NADPH regenerating system
Method: The human microsomal stability assay is used for early assessment of metabolic stability of a test compound in human liver microsomes.
Human liver microsomes (Cat. NO.: 452117, Corning, USA; Cat. NO.: H2610, Xenotech, USA) were preincubated with test compound for 10 minutes at 37° C. in 100 mM potassium phosphate buffer, pH 7.4. The reactions were initiated by adding NADPH regenerating system. The final incubation mixtures contained 1 μM test compound, 0.5 mg/mL liver microsomal protein, 1 mM MgCl2, 1 mM NADP, 1 unit/mL isocitric dehydrogenase and 6 mM isocitric acid in 100 mM potassium phosphate buffer, pH 7.4. After incubation times of 0, 3, 6, 9, 15 and 30 minutes at 37° C., 300 μL of cold acetonitrile (including internal standard) was added to 100 μL incubation mixture to terminate the reaction. Following precipitation and centrifugation, the amount of compound remaining in the samples were determined by LC-MS/MS. Controls of no NADPH regenerating system at zero and 30 minutes were also prepared and analyzed.

human TLR7, sequence (Q9NYK1 27-1049): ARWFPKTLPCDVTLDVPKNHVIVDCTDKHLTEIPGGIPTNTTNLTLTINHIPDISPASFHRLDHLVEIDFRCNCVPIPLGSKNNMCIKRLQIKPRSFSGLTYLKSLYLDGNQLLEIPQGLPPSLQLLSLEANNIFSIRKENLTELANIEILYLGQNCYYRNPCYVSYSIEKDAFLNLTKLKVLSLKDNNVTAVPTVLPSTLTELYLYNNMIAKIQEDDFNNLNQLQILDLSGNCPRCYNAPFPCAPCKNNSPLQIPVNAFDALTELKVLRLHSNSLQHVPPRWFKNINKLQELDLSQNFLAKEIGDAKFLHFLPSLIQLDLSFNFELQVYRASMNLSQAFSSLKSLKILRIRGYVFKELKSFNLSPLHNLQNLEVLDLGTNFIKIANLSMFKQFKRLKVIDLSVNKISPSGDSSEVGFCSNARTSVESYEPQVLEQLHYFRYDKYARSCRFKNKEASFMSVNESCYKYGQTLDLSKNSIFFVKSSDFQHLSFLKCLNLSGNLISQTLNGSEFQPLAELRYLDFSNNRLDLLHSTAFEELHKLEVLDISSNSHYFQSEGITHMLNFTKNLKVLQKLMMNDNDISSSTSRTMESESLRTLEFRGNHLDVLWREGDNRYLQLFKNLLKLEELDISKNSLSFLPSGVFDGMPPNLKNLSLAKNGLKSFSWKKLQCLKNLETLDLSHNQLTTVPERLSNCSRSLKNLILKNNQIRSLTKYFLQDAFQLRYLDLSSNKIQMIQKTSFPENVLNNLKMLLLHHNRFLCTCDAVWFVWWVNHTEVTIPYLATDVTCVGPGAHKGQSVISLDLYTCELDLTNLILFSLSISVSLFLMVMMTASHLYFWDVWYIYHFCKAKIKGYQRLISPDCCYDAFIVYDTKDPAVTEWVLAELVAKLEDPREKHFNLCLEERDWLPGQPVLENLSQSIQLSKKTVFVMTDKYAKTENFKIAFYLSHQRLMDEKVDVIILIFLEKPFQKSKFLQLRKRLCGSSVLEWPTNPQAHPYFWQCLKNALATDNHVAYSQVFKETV
human TLR8, sequence (Q9NR97 27-1041): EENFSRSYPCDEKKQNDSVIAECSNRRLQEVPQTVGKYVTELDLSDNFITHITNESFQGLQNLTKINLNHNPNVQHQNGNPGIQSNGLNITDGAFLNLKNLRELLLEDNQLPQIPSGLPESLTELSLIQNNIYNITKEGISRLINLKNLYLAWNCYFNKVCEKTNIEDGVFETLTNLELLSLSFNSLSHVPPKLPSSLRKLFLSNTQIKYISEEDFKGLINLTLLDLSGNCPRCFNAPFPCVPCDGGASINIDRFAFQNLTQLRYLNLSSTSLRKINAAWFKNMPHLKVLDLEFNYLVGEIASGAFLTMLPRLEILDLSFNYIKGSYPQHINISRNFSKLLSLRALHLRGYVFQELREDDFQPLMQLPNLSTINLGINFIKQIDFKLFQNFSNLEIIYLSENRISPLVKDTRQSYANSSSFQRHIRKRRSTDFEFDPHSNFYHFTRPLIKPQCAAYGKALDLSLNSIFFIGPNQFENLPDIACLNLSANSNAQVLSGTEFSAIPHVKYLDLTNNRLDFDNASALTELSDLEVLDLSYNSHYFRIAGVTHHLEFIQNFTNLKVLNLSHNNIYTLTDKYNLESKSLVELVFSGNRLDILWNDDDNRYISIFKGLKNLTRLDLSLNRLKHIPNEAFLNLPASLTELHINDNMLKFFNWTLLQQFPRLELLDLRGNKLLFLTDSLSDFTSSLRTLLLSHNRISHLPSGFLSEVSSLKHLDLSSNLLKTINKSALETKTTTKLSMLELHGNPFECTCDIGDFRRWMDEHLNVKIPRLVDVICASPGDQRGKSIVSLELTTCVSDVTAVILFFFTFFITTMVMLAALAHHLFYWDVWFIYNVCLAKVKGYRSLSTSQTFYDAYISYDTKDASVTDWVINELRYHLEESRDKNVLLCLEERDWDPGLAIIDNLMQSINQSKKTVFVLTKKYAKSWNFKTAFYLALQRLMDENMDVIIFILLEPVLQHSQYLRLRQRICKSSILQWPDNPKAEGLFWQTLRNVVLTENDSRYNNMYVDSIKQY
TLR9, sequence (Q9NR96 26-1032): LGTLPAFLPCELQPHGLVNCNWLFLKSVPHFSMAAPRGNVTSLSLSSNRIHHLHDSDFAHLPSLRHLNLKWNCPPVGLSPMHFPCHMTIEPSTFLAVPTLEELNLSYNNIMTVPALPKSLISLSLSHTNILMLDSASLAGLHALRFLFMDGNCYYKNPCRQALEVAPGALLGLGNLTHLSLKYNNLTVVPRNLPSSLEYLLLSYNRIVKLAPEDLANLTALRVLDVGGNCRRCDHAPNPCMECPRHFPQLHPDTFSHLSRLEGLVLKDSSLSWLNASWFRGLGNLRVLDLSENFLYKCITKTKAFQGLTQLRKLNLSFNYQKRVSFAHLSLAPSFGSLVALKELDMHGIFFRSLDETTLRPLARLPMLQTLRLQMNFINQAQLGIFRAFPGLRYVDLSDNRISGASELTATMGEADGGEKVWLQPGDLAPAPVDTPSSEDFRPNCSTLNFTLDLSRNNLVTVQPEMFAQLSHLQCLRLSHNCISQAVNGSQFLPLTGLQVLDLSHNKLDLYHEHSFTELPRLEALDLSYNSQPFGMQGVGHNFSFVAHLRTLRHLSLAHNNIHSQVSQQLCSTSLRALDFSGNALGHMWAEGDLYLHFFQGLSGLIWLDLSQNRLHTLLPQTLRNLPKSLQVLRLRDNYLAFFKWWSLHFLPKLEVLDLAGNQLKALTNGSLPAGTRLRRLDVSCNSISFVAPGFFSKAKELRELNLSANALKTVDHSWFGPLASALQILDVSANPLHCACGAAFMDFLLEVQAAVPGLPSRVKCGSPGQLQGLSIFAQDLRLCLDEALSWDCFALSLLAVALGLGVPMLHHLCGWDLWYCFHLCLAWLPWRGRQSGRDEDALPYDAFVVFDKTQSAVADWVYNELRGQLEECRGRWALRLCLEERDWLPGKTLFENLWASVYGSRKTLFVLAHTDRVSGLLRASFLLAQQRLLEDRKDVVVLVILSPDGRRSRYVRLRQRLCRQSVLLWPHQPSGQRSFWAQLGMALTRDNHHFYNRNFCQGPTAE

SMILES | pIC50 (human TLR7) | pIC50 (human TLR8) | pIC50 (TLR9) | Clearance of Human microsome [1] [mL/min/kg]
Cc1cn2cc(-c3ccc(N4CCC5(CC4)COCCN5)nc3C(C)C)cc(C)c2n1 [Example 6, 9-[5-(2,8-dimethylimidazo[1,2-a]pyridin-6-yl)-6-isopropyl-2-pyridyl]-4-oxa-1,9-diazaspiro[5.5]undecane] | 7.87 | 7.57 | 6.57 | 
CCc1nc(N2CCN(C(=O)C3CNCCO3)CC2)ccc1-c1cc(C)c2nc(C)cn2c1 (centres unmarked) [Example 18, [4-[5-(2,8-dimethylimidazo[1,2-a]pyridin-6-yl)-6-ethyl-2-pyridyl]piperazin-1-yl]-morpholin-2-yl-methanone] | 7.65 | 7.54 | 6.59 | 
CCc1nc(N2CCN(c3ncc4c(n3)CNCC4)CC2)ccc1-c1cc(C)c2nc(C)cn2c1 [Example 19, 2-[4-[5-(2,8-dimethylimidazo[1,2-a]pyridin-6-yl)-6-ethyl-2-pyridyl]piperazin-1-yl]-5,6,7,8-tetrahydropyrido[3,4-d]pyrimidine] | 7.36 | 8.89 | 6.88 | 
CO[C@@H]1CN(C2CCN(c3ccc(-c4cc(C)c5nccn5c4)c(N(C)C)n3)CC2)C[C@H]1N [Example 24, 6-[4-[(3R,4R)-3-amino-4-methoxy-pyrrolidin-1-yl]-1-piperidyl]-N,N-dimethyl-3-(8-methylimidazo[1,2-a]pyridin-6-yl)pyridin-2-amine] | 7.70 | 8.40 | 6.97 | 
CCc1nc(N2CCC(N3C[C@@H](N)[C@H](OC)C3)CC2)ncc1-c1cc(C)c2nccn2c1 [Example 26, (3R,4R)-1-[1-[4-ethyl-5-(8-methylimidazo[1,2-a]pyridin-6-yl)pyrimidin-2-yl]-4-piperidyl]-4-methoxy-pyrrolidin-3-amine] | 8.13 | 9.00 | 6.64 | 8.69
CCc1nc(N2CCC(N3CC4(CNCCO4)C3)CC2)ncc1-c1cc(C)c2nccn2c1 [Example 28, 2-[1-[4-ethyl-5-(8-methylimidazo[1,2-a]pyridin-6-yl)pyrimidin-2-yl]-4-piperidyl]-5-oxa-2,8-diazaspiro[3.5]nonane] | 7.82 | 8.89 | 6.80 | 

More lines, in order of rising pIC50 (human TLR7), values ahead:

pIC50 (human TLR7) | pIC50 (human TLR8) | pIC50 (TLR9) | Clearance of Human microsome [1] [mL/min/kg] | SMILES
8.13 | 7.55 | 6.53 | 9.16 | COc1cc(-c2ccc(N3CCC4(CCNCC4)CC3)nc2C(F)F)cn2ccnc12 [Example 13, 3-[6-(difluoromethyl)-5-(8-methoxyimidazo[1,2-a]pyridin-6-yl)-2-pyridyl]-3,9-diazaspiro[5.5]undecane]
8.19 | 8.09 | 6.93 |  | Cc1cc(-c2ccc(N3CCC(N4CCNCC4)CC3)nc2N(C)C)cn2ccnc12 [Example 23, N,N-dimethyl-3-(8-methylimidazo[1,2-a]pyridin-6-yl)-6-(4-piperazin-1-yl-1-piperidyl)pyridin-2-amine]
8.21 | 7.80 | 6.95 | 9.54 | CCc1nc(N2CCC(N3CC4(CNCCO4)C3)CC2)ccc1-c1cc(C)c2nc(C)cn2c1 [Example 16, 2-[1-[5-(2,8-dimethylimidazo[1,2-a]pyridin-6-yl)-6-ethyl-2-pyridyl]-4-piperidyl]-5-oxa-2,8-diazaspiro[3.5]nonane]
8.48 | 8.34 | 6.59 | 7.75 | CCc1nc(N2CCC(N3CCNCC3)CC2)ncc1-c1cc(C)c2nccn2c1 [Example 27, 6-[4-ethyl-2-(4-piperazin-1-yl-1-piperidyl)pyrimidin-5-yl]-8-methyl-imidazo[1,2-a]pyridine]
8.85 | 8.89 | 6.53 | 9.06 | Cc1cc(-c2ccc(N3CCC(N)CC3)nc2C(C)C)cn2ccnc12 [Example 1, 1-[6-isopropyl-5-(8-methylimidazo[1,2-a]pyridin-6-yl)-2-pyridyl]piperidin-4-amine]
